Laboratory results: patent publication US10464941B2, “Therapeutic compounds” (REGENTS OF THE UNIVERSITY OF MINNESOTA, priority 2015, dated 2019)
Marks after values point to notes of the source that are not given here.

Experiments:
[1] = tested on: control mice; test: Radiant heat tail-flick antinociception, control (LPS-untreated) mice; assay type: in vivo; conditions: control mice; for CONTROLS ED50 (CI) i.c.v. / CONTROLS ED50 (CI) i.t.: tail flick
From the text: Pain is a hallmark of many inflammatory conditions.

[2] = tested on: LPS-pretreated mice; test: animal or person; conditions: for LPS pretreated ED50 (CI) i.t. / LPS pretreated i.c.v./i.t. ratio / LPS pretreated ED50 (CI) i.c.v.: LPS 1 mg/kg 24 hours i.p.; for LPS pretreated ED50 (CI) i.t. / LPS pretreated ED50 (CI) i.c.v.: tail flick; for percent maximal possible effect at highest dose measured: 1000 pmol/mouse; for ED50 values (95% CI) LPS (thermal): LPS thermal hyperalgesia model; for Relative Potency relative to a mixture of monovalent mu agonist (4) and CCR5 antagonist (2): mouse, in vivo
Method: Male ICR-CD1 mice (17-25 g; Harlan, Madison, Wis.), C3H mice (15-20 g, National Cancer Institute, Bethesda, Md.) or TLR4 knock-out mice (gift from Dr. Sabita Roy) were housed, 4 to a small box in a temperature- and humidity-controlled environment with unlimited access to food and water. They were maintained on a 12 h light/dark cycle. All experiments were approved by the Institutional Animal Care and Use Committee of the University of Minnesota (Minneapolis, Minn.).
The tail flick assay is used to test for antinociception described by D'Amour and Smith^64 and modified by Dewey et. al.^65 Mice are held gently in one hand with the tail positioned in the apparatus (Tail Flick Analgesia Meter, Columbus Instruments, Columbus, Ohio) for radiant heat stimulus. The tail-flick response is elicited by applying radiant heat to the dorsal side of the tail. The test latency is measured before drug treatment (control) and again after the drug treatment (test) at the peak time of the compound, a 10 s maximum cut-off time is used to prevent damage to the tail. Antinociception is quantified according to the method of Harris and Pierson^66 as the percent maximal possible effect (% MPE) which is calculated as: % MPE=(Test−Control/10−Control)×100
A minimum of three groups of eight to ten mice are used for each dose response curve, and each mouse is used only once.
The compounds were tested for acute tolerance by comparing the ED80-90 dose measured on day 1 to the same dose administered and retested 24 hours later on the same mouse.
Compounds were dissolved in 5% DMSO and diluted to less than 1% DMSO for injection. These compounds were administered in a volume of 5-μl either i.c.v (Haley and McCormick) or intrathecal (i.t.) as described for mice by Hylden and Wilcox^67 in conscious mice. […] Time course studies, including the times 5, 10, 20, 30 and 60 minutes were used to determine the peak antinociception.
Pain is a hallmark of many inflammatory conditions. […] Antinociception was evaluated using the radiant heat-induced tailflick assay. Morphine was employed as a standard opioid agonist under these conditions.

[3] = tested on: CFA-induced mechanical hyperalgesia mouse model; test: Complete Freund's Adjuvant (CFA) mechanical hyperalgesia, electronic von Frey; assay type: in vivo, mice; conditions: i.t.
Method: Before injection of CFA baseline withdrawal thresholds (g) were obtained from a mechanical stimulation using an electronic von Frey anesthesiometer (IITC Life Sciences, Woodland Hills, USA) by applying an accurate force on both left and right hind paw. (2,3) The left hindpaws were then injected (intraplantar) with a 50% solution of CFA (10 μg, Sigma-Aldrich) in water while the mice are under isoflurane anesthesia (10). Twenty-four hours later the withdrawal threshold (g) was again measured prior to and after the test compound i.t. at 10, 20, 30 and 60 minutes to determine the peak time and subsequent ED50. % MPE was calculated ((Time-point withdrawal threshold with drug−CFA withdrawal threshold)/(Day 0 withdrawal threshold−CFA withdrawal threshold))*100 (Wade, C. L., et al., PLoS One 2013, 8, e79239/1-e79239/11, 11 pp; Martinov, T., et al., J Vis Exp 2013, e51212; Sorge, R. E., et al., J. Neurosci. 2011, 31, 15450-15454).

| Compound | CONTROLS i.c.v./i.t. ratio [1] | percent maximal possible effect at highest dose measured ([1]; i.c.v., 1000 pmol/mouse) | percent maximal possible effect at highest dose measured ([1]; i.t., 1000 pmol/mouse) [%] | LPS pretreated ED50 (CI) i.t. ([2]; i.t.) [pmol/mouse] | percent maximal possible effect at highest dose measured ([2]; LPS pretreated, i.c.v.) [%] | acute tolerance (ED80 retested 24 hours later) ([1]; i.c.v.) | CONTROLS ED50 (CI) i.c.v. ([1]; i.c.v.) [pmol/mouse] | acute tolerance (ED80 retested 24 hours later) ([1]; i.t.) | CONTROLS ED50 (CI) i.t. ([1]; i.t.) [pmol/mouse] | LPS pretreated i.c.v./i.t. ratio [2] | LPS pretreated ED50 (CI) i.c.v. ([2]; i.c.v.) [pmol/mouse] | ED50 values (95% CI) LPS (thermal) ([2]; i.t.) [pmol/mouse] | Relative Potency relative to a mixture of monovalent mu agonist (4) and CCR5 antagonist (2) [2] | ED50 values (95% CI) CFA (mechanical) [3] [pmol/mouse] | percent maximal possible effect at highest dose measured ([1]; i.c.v., 250 pmol/mouse) [%] | % MPE still present 24 hours later ([2]; LPS pretreated, i.t., 24 hours later) [% MPE] | tolerance upon repeated administration ([2]; i.t., LPS-pretreated mice) | percent maximal possible effect at highest dose measured ([1]; i.t., 500 pmol/mouse) [%] | percent maximal possible effect at highest dose measured ([2]; LPS pretreated, i.t.) [%] |
| --- | --- | --- | --- | --- | --- | --- | --- | --- | --- | --- | --- | --- | --- | --- | --- | --- | --- | --- | --- |
| CC(=O)N1CCC(C(=O)N(CCCN2CCC(Cc3ccc(C(N)=O)cc3)CC2)c2ccc(C)c(Cl)c2)CC1 [Compound 2, TAK-220, reference compound] | 1 | 26.2 ± 5.9% | 34.2 ± 10.8 | 740 | 7.6 ± 1.5 |  |  |  |  |  |  |  |  |  |  |  |  |  |  |
| Cc1ccc(N(CCCN2CCC(Cc3ccc(C(N)=O)cc3)CC2)C(=O)C2CCN(C(=O)COCC(=O)NCCNC(=O)COCC(=O)N[C@H]3CC[C@@]4(O)C5Cc6ccc(O)c7c6[C@@]4(CCN5C)[C@H]3O7)CC2)cc1Cl [Compound 3a, N-(3-(4-(4-carbamoylbenzyl)piperidin-1-yl)propyl)-N-(3-chloro-4-methylphenyl)-1-(14-(((4aS,7S,7aR,12bS)-4a,9-dihydroxy-3-methyl-2,3,4,4a,5,6,7,7a-octahydro-1H-4,12-methanobenzofuro[3,2-e]isoquinolin-7-yl)amino)-5,10,14-trioxo-3,12-dioxa-6,9-diazatetradecan-1-oyl)piperidine-4-carboxamide] | 3.29 |  |  | 10.6 |  | (78.2-145)^c | 107 | (27.3-38.4)^b | 32.3 | 5.32 | 56.41 | 11 | 4.9 | 3 |  |  |  |  |  |
| Cc1ccc(N(CCCN2CCC(Cc3ccc(C(N)=O)cc3)CC2)C(=O)C2CCN(C(=O)COCC(=O)NCCCCCNC(=O)COCC(=O)N[C@H]3CC[C@@]4(O)C5Cc6ccc(O)c7c6[C@@]4(CCN5C)[C@H]3O7)CC2)cc1Cl [Compound 3b, N-(3-(4-(4-carbamoylbenzyl)piperidin-1-yl)propyl)-N-(3-chloro-4-methylphenyl)-1-(17-(((4aS,7S,7aR,12bS)-4a,9-dihydroxy-3-methyl-2,3,4,4a,5,6,7,7a-octahydro-1H-4,12-methanobenzofuro[3,2-e]isoquinolin-7-yl)amino)-5,13,17-trioxo-3,15-dioxa-6,12-diazaheptadecan-1-oyl)piperidine-4-carboxamide] | 3.14 |  |  | 10.9 |  | (166-72.2)^c | 358 | (253-543)^c | 371 | 6.38 | 187 |  | 4.8 |  |  |  |  |  |  |
| Cc1ccc(N(CCCN2CCC(Cc3ccc(C(N)=O)cc3)CC2)C(=O)C2CCN(C(=O)COCC(=O)NCCCCCCCNC(=O)COCC(=O)N[C@H]3CC[C@@]4(O)C5Cc6ccc(O)c7c6[C@@]4(CCN5C)[C@H]3O7)CC2)cc1Cl [Compound 3c, N-(3-(4-(4-carbamoylbenzyl)piperidin-1-yl)propyl)-N-(3-chloro-4-methylphenyl)-1-(19-(((4aS,7S,7aR,12bS)-4a,9-dihydroxy-3-methyl-2,3,4,4a,5,6,7,7a-octahydro-1H-4,12-methanobenzofuro[3,2-e]isoquinolin-7-yl)amino)-5,15,19-trioxo-3,17-dioxa-6,14-diazanonadecan-1-oyl)piperidine-4-carboxamide] |  |  |  | 11.4 |  |  |  | (54.6-507)^c | 166 | 60.7 | 692 |  | 4.6 |  | 35.9 ± 9.0 |  |  |  |  |
| Cc1ccc(N(CCCN2CCC(Cc3ccc(C(N)=O)cc3)CC2)C(=O)C2CCN(C(=O)COCC(=O)NCCCCCCCCCNC(=O)COCC(=O)N[C@H]3CC[C@@]4(O)C5Cc6ccc(O)c7c6[C@@]4(CCN5C)[C@H]3O7)CC2)cc1Cl [Compound 3d, N-(3-(4-(4-carbamoylbenzyl)piperidin-1-yl)propyl)-N-(3-chloro-4-methylphenyl)-1-(21-(((4aS,7S,7aR,12bS)-4a,9-dihydroxy-3-methyl-2,3,4,4a,5,6,7,7a-octahydro-1H-4,12-methanobenzofuro[3,2-e]isoquinolin-7-yl)amino)-5,17,21-trioxo-3,19-dioxa-6,16-diazahenicosan-1-oyl)piperidine-4-carboxamide] | 63.98 | 54.5 ± 14.5^ % |  | 8.43 | 63.1 ± 45.2 |  |  |  | 15.83 | 118.62 |  |  | 6.2 |  |  | 24 |  |  |  |
| Cc1ccc(N(CCCN2CCC(Cc3ccc(C(N)=O)cc3)CC2)C(=O)C2CCN(C(=O)COCC(=O)NCCCCCCCCCCCCNC(=O)COCC(=O)N[C@H]3CC[C@@]4(O)C5Cc6ccc(O)c7c6[C@@]4(CCN5C)[C@H]3O7)CC2)cc1Cl [Compound 3f, N-(3-(4-(4-carbamoylbenzyl)piperidin-1-yl)propyl)-N-(3-chloro-4-methylphenyl)-1-(24-(((4aS,7S,7aR,12bS)-4a,9-dihydroxy-3-methyl-2,3,4,4a,5,6,7,7a-octahydro-1H-4,12-methanobenzofuro[3,2-e]isoquinolin-7-yl)amino)-5,20,24-trioxo-3,22-dioxa-6,19-diazatetracosan-1-oyl)piperidine-4-carboxamide] | ~2.97 | 27.6 ± 9.1% |  | 122.70 | 55.7 ± 11.2 |  |  |  | 336.9 | 8.15^d |  | 123 | 0.4 | 58 |  |  |  |  |  |
| CNC(=O)COCC(=O)NCCCCCCCNC(=O)COCC(=O)N[C@H]1CC[C@@]2(O)C3Cc4ccc(O)c5c4[C@@]2(CCN3C)[C@H]1O5 [Compound 4, reference compound] | 0.95 |  |  | 21.3 |  | (83.1-141)^c | 108 | (86.5-148)^c | 113 | 7.93 | 169 | 21 |  | 27 |  |  | exhibited tolerance |  |  |
| CNC(=O)COCC(=O)NCCCCCCCNC(=O)COCC(=O)N1CCC(C(=O)N(CCCN2CCC(Cc3ccc(C(N)=O)cc3)CC2)c2ccc(C)c(Cl)c2)CC1 [Compound 5, N-(3-(4-(4-carbamoylbenzyl)piperidin-1-yl)propyl)-N-(3-chloro-4-methylphenyl)-1-(3,7,17-trioxo-5,19-dioxa-2,8,16-triazahenicosan-21-oyl)piperidine-4-carboxamide] |  |  |  |  | 51.9 ± 12.3 |  | 505 |  |  |  |  |  |  |  |  |  |  | 28.1 ± 11.3 | 32.4 ± 12.5 |
